According to patent US7728040B1, “Polyamine conjugates as selective NMDA inhibitors and anti-cancer drugs” (University of Central Florids Research Foundation, Inc., priority 2002, dated 2010):
pIC50, pKi: −log10 of the molar value. Counter-ions that a name gives are not always drawn. Like-named read-outs stand apart in the source and are kept apart here.

Legend:
CHO-MG cells = experiment: Cytotoxicity in CHO-MG cells (polyamine-transport deficient); assay type: cell-based, Chinese hamster; conditions: Cricetulus griseus, read-out: CHO-MG IC50
polyamine transporter = experiment: Ki, affinity for the polyamine transporter in L1210 cells; assay type: binding, mouse
Description: Biological Evaluation. Three cell lines were chosen for bioassay. L1210 (mouse leukemia) cells were selected for comparison with the published IC50 and Ki values determined for a variety of polyamine substrates. In this regard both Ki and IC50 values were measured in this line for comparison purposes. Chinese hamster ovary (CHO) cells were chosen along with a mutant cell line (CHO-MG) in order to comment on polyamine transporter affinity and cell selectivity. The CHO-MG cell line is polyamine-transport deficient and was isolated after chronic selection for growth resistance to methylglyoxalbis (guanylhydrazone). For the purposes of this study, the CHO-MG cell line represents cells with limited polyamine transport activity. In contrast, the parent CHO cell line illustrates cell types with active polyamine transport. Comparison of efficacy in these two lines provided an important screen to detect conjugate delivery via the polyamine transporter, PAT. For example, a conjugate with high utilization of the transporter would be very toxic to CHO cells, but less so to CHO-MG cells. Therefore, IC50 determination in these two CHO lines provided a relative ranking of delivery via the PAT.

L1210 cells + DFMO = experiment: Cytotoxicity in L1210 cells pretreated with DFMO; assay type: cell-based, mouse; conditions: for pIC50: Mus musculus; for L1210/(L1210 + DFMO) IC50 ratio: fold more toxic in the presence of DFMO
L1210 cells = experiment: Cytotoxicity in L1210 cells; assay type: cell-based; conditions: Mus musculus
CHO cells = experiment: Cytotoxicity in CHO cells (active polyamine transporter); assay type: cell-based, Chinese hamster; conditions: for pIC50: Cricetulus griseus, CHO, read-out: CHO IC50; for CHO-MG/CHO IC50 ratio: selectivity for cells with active polyamine transporter
NR1/NR2A NMDA receptor = NR1/NR2A NMDA receptor (Homo sapiens, UniProt Q05586+Q12879); experiment: Inhibition of NMDA receptor NR1/NR2A function; assay type: cell-based
Sequence of NR1/NR2A NMDA receptor (Q12879 23-1464, other chains not shown): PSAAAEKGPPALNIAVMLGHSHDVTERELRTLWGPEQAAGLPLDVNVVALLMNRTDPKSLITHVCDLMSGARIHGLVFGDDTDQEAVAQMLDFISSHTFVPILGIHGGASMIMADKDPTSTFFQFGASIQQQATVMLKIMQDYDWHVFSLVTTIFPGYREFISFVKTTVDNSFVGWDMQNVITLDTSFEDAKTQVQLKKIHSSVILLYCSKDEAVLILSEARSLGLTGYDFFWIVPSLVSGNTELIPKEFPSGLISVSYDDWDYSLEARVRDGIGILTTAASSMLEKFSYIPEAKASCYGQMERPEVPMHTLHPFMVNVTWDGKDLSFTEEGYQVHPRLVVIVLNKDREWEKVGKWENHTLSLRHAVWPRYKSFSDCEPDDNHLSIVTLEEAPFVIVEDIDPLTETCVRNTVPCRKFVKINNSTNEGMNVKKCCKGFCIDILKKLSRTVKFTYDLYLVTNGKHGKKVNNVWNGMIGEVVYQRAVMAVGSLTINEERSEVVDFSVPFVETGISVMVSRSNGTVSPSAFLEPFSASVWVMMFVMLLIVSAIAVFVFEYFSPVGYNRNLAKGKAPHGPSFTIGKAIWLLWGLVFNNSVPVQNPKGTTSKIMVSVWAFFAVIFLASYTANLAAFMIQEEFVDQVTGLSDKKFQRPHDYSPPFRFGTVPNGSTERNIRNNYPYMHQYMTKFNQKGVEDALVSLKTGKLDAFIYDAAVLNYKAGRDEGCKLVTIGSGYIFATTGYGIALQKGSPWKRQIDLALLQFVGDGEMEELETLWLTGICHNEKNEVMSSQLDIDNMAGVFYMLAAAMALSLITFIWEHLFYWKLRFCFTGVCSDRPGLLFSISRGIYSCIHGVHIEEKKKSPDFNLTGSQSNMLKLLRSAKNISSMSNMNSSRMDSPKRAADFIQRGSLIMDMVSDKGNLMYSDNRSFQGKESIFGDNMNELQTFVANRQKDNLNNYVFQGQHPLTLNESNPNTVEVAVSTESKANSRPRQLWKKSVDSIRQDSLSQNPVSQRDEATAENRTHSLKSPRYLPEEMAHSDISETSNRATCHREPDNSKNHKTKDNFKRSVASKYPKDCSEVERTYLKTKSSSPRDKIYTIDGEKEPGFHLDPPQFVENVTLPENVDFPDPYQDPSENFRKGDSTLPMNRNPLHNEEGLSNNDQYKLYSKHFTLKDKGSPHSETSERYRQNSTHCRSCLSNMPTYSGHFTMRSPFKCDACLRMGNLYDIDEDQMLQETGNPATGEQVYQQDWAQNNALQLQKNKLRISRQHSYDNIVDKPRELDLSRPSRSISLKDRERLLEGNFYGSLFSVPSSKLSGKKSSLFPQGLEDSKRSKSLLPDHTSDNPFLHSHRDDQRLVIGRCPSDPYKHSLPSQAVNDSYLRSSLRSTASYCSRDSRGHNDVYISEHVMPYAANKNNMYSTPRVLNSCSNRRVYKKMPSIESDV

[1] = polyamine-transport deficient line
[2] = L1210 cells pretreated with DFMO, read-out: L1210 + DFMO IC50
[3] = L1210 cells, no DFMO, read-out: L1210 IC50

SMILES	pIC50 (CHO-MG cells; [1])	pKi (polyamine transporter)	pIC50 (L1210 cells + DFMO; [2])	L1210/(L1210 + DFMO) IC50 ratio (L1210 cells + DFMO)	pIC50 (L1210 cells; [3])	pIC50 (CHO cells; active polyamine transporter)	CHO-MG/CHO IC50 ratio (CHO cells)	IC50 for NR1/NR2A (NR1/NR2A NMDA receptor)	NMDA receptor (NR1A/NR2A) function at the highest dose (NR1/NR2A NMDA receptor)	pIC50 (CHO-MG cells)	pIC50 (L1210 cells + DFMO; L1210, read-out: L1210 + DFMO IC50)	pIC50 (L1210 cells; L1210, read-out: L1210 IC50)	pIC50 (CHO cells)	pIC50 (NR1/NR2A NMDA receptor)	CHO-MG/CHO IC50 ratio (CHO cells; listed as 27c, Trihydrochloride)	CHO-MG/CHO IC50 ratio (CHO cells; trihydrochloride)
Cl.Cl.Cl.Cl.NCCCCCN(CCCCNCCCN)Cc1c2ccccc2cc2ccccc12 [Compound 13g, N-[4-(3-Amino-propylamino)-butyl]-N-anthracen-9-ylmethyl-pentane-1,5-diamine Tetrahydrochloride]	4.47	7.00	5.68	3	5.19	4.74	1.9	–	–	–	–	–	–	–	–	–
Cl.Cl.Cl.NCCCN(CCCN)Cc1c2ccccc2cc2ccccc12 [Compound 8b, N-(3-Amino-propyl)-N-anthracen-9-ylmethyl-propane-1,3-diamine, trihydrochloride]	5.47	4.48	5.85	1.3	5.74	5.72	1.8	–	–	–	–	–	–	–	–	–
c1ccc2cc3ccccc3cc2c1 [Anthracene]	–	–	–	–	–	–	–	no effect	greater than 85%	–	–	–	–	–	–	–
Cl.Cl.NCCCCNCc1c2ccccc2cc2ccccc12 [Compound 34, N^1-Anthracen-9-ylmethyl-butane-1,4-diamine Dihydrochloride]	5.12	4.49	5.01	0.7	5.20	5.11	1	–	–	–	–	–	–	–	–	–
Cl.Cl.Cl.NCCCCN(CCCN)Cc1c2ccccc2cc2ccccc12 [Compound 8d, N-(3-Amino-propyl)-N-anthracen-9-ylmethyl-butane-1,4-diamine, trihydrochloride]	5.02	5.21	6.70	2	6.40	6.40	24	–	–	–	–	–	–	–	–	–
Cl.Cl.Cl.NCCCCNCCCCNCc1ccc2ccc3cccc4ccc1c2c34 [Compound 27d, N-(4-Amino-butyl)-N′-pyren-1-ylmethyl-butane-1,4-diamine Trihydrochloride]	–	5.54	–	1.1	–	–	34	–	–	4.81	6.44	6.40	6.34	–	–	–
Cl.Cl.Cl.Cl.NCCCCCN(CCCCCNCCCCN)Cc1c2ccccc2cc2ccccc12 [Compound 13i, N-[5-(4-Amino-butylamino)-pentyl]-N-anthracen-9-ylmethyl-pentane-1,5-diamine Tetrahydrochloride]	5.24	7.19	5.37	1.7	5.15	5.40	1.4	–	–	–	–	–	–	–	–	–
Cl.Cl.Cl.NCC(O)CNCCCCNCc1c2ccccc2cc2ccccc12 (stereo not shown) [Compound 30, 1-Amino-3-{4-[(anthracen-9-ylmethyl)-amino]-butylamino}-propan-2-ol Trihydrochloride]	5.02	4.90	5.64	0.7	5.82	5.04	1	–	–	–	–	–	–	–	–	–
CCCCNCc1c2ccccc2cc2ccccc12 [Compound 35, N^1-Anthracen-9-ylmethyl-butylamine Monohydrochloride]	4.95	4.21	4.66	0.7	4.84	4.98	1.1	–	–	–	–	–	–	–	–	–
NCCCNCCCCNCCCN [Spermine]	–	–	–	–	–	–	–	–	–	–	–	–	–	3.28	–	–
Cl.Cl.Cl.NCCCCNCCCNCc1c2ccccc2cc2ccccc12 [Compound 8c, N^1-{3-[(Anthracen-9-ylmethyl)-amino]-propyl}-butane-1,4-diamine, trihydrochloride]	5.06	5.60	6.52	2.3	6.15	5.60	3.5	–	–	–	–	–	–	–	–	–
Cl.Cl.Cl.NC1CCC(NCCCCNCc2c3ccccc3cc3ccccc23)CC1 (stereo not shown) [Compound 31, N-{4-[(Anthracen-9-ylmethyl)-amino]-butyl}-cyclohexane-1,4-diamine Trihydrochloride]	4.76	5.42	6.15	1.4	6.00	5.60	7	–	–	–	–	–	–	–	–	–
Cl.Cl.NCCCCCCCCNCc1c2ccccc2cc2ccccc12 [Compound 32, N^1-Anthracen-9-ylmethyl-octane-1,8-diamine Dihydrochloride]	5.31	4.88	5.34	0.7	5.52	5.31	1	–	–	–	–	–	–	–	–	–
Cl.Cl.Cl.NCCCCNCCCCNCc1cccc2ccccc12 [Compound 27b, N-(4-Amino-butyl)-N′-naphthalen-1-ylmethyl-butane-1,4-diamine Trihydrochloride]	< 4.00	5.42	6.37	1.1	6.30	6.22	–	–	–	–	–	–	–	–	>164	> 164
Cl.Cl.Cl.Cl.NCCCCNCCCCN(CCCCN)Cc1c2ccccc2cc2ccccc12 [Compound 13f, N-[4-(4-Amino-butylamino)-butyl]-N-anthracen-9-ylmethyl-butane-1,4-diamine Tetrahydrochloride]	4.48	7.29	5.80	4.7	5.12	4.97	–	–	–	–	–	–	–	–	–	–
Cl.Cl.Cl.NCCCCNCCCCNCc1ccccc1 [Compound 27a, N-(4-Amino-butyl)-N′-benzene-1-ylmethyl-butane-1,4-diamine Trihydrochloride]	< 3.00	5.35	3.38	0.1	4.44	< 3.00	–	–	–	–	–	–	–	–	–	–
Cl.Cl.Cl.Cl.NCCCCN(CCCCNCCCN)Cc1c2ccccc2cc2ccccc12 [Compound 13e, N-[4-(3-Amino-propylamino)-butyl]-N-anthracen-9-ylmethyl-butane-1,4-diamine Tetrahydrochloride]	5.55	7.13	6.22	7.2	5.37	5.40	0.7	–	–	–	–	–	–	–	–	–
Cl.Cl.Cl.Cl.NCCCCCN(CCCCNCCCCN)Cc1c2ccccc2cc2ccccc12 [Compound 13h, N-[4-(4-Amino-butylamino)-butyl]-N-anthracen-9-ylmethyl-pentane-1,5-diamine Tetrahydrochloride]	4.51	7.19	5.42	1.9	5.14	5.00	–	–	–	–	–	–	–	–	–	–
Cl.Cl.NCCOCCOCCNCc1c2ccccc2cc2ccccc12 [Compound 33, 2-(2-{2-[(Anthracen-9-ylmethyl)-amino]-ethoxy}-ethoxy)-ethylamine Dihydrochloride]	4.80	4.05	4.77	0.7	4.95	4.90	1.3	–	–	–	–	–	–	–	–	–
Cl.Cl.Cl.Cl.NCCCCCN(CCCCN)CCCNCc1c2ccccc2cc2ccccc12 [Compound 13d, N-(4-Amino-butyl)-N-{3-[(anthracen-9-ylmethyl)-amino]-propyl}-pentane-1,5-diamine Tetrahydrochloride]	4.38	7.05	5.14	1.5	4.97	4.46	1.2	–	–	–	–	–	–	–	–	–
NCCCCNCCCNCCCNCc1c2ccccc2cc2ccccc12 [Compound 13a, N^1-{3-[3-(Anthracen-9-ylmethyl)-amino]-propylamino}-butane-1,4-diamine Tetrahydrochloride]	4.38	6.97	4.66	1	4.66	4.36	0.9	–	–	–	–	–	–	–	–	–
Cl.Cl.Cl.NCCCCCN(CCCCN)Cc1c2ccccc2cc2ccccc12 [Compound 8g, N-(4-Amino-butyl)-N-anthracen-9-ylmethyl-pentane-1,5-diamine, trihydrochloride]	4.24	5.77	6.52	1.3	6.40	5.82	38	–	–	–	–	–	–	–	–	–
Cl.Cl.Cl.NCCCCCN(CCCN)Cc1c2ccccc2cc2ccccc12 [Compound 8f, N-(3-Amino-propyl)-N-anthracen-9-ylmethyl-pentane-1,5-diamine, trihydrochloride]	5.00	5.30	6.15	1.9	5.89	5.39	2.5	–	–	–	–	–	–	–	–	–
